Measured values taken from patent US20240041042A1, “1-(PYRIDYL)-5-AZINYLPYRAZOLE DERIVATIVES, AND THEIR USE FOR CONTROL OF UNDESIRED PLANT GROWTH” (Bayer Aktiengesellschaft, priority 2020, published 2024).
Where two headings read alike, the source gives them in different places.

What was measured:
Format in all cases: in vivo
[1] = tested on: Amaranthus retroflexus (AMARE); assay: Pre-emergence herbicidal action against AMARE; conditions: visual scoring after about 3 weeks vs untreated controls
Method in brief: (§1)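 Pre-emergence soil-surface spray, WP/EC formulation, 0.5% additive, 600 l/ha water, rates of 320 g/ha or lower. Greenhouse, ~3 wk. Visual score, % of untreated control (100% = plants dead, 0% = like control).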

Avena fatua (AVEFA) [2] = assay: Pre-emergence herbicidal action against AVEFA; conditions: visual scoring after about 3 weeks vs untreated controls
Method in brief: as §1

[3] = tested on: Echinochloa crus-galli (ECHCG); assay: Pre-emergence herbicidal action against ECHCG; conditions: dosage 320 g/ha
Method in brief: as §1

[4] = tested on: Matricaria inodora (MATIN); assay: Pre-emergence herbicidal action against MATIN
Method in brief: as §1

[5] = tested on: Polygonum convolvulus (POLCO); assay: Pre-emergence herbicidal action against POLCO
Method in brief: as §1

Setaria viridis (SETVI) [6] = assay: Pre-emergence herbicidal action against SETVI; conditions: dosage 320 g/ha
Method in brief: as §1

[7] = tested on: Verconica persica (VERPE); assay: Pre-emergence herbicidal action against VERPE; conditions: dosage 320 g/ha
Method in brief: as §1

Brassica napus (BRSNW) = conditions: 80 g/ha, crop plant compatibility, in comparison to untreated controls
Method in brief: (§2)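 Crop injury rated visually in percent against untreated plants roughly 3 weeks after treatment (0% no effect, 100% plants dead). Compounds, as WP or EC with 0.5% additive in 600 l/ha water, were applied to the covering soil right after sowing; greenhouse growth. Suffixes a, b, c denote different dosages.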

Oryza sativa (ORYSA) [8] = conditions: pre-emergence, 80 g/ha, crop plant compatibility, in comparison to untreated controls
Method in brief: as §2

[9] = tested on: Amaranthus retroflexus (AMARE); assay: Post-emergence herbicidal action against AMARE
Method in brief: (§3)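 Rates were 320 g/ha or below, applied as aqueous WP/EC spray with 0.5% additive (600 l/ha) onto one-leaf-stage plants. About 3 weeks later in the greenhouse, damage was scored visually against untreated plants on a 0–100% scale, where 100% means plants died.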

[10] = tested on: Echinochloa crus-galli (ECHCG); assay: Post-emergence herbicidal action against ECHCG
Method in brief: as §3

Lolium rigidum (LOLRI) [11] = assay: Post-emergence herbicidal action against LOLRI
Method in brief: as §3

[12] = tested on: Pharbitis purpurea (PHBPU); assay: Post-emergence herbicidal action against PHBPU; conditions: dosage 320 g/ha
Method in brief: as §3

[13] = tested on: Polygonum convolvulus (POLCO); assay: Post-emergence herbicidal action against POLCO; conditions: dosage 320 g/ha
Method in brief: as §3

Setaria viridis (SETVI) [14] = assay: Post-emergence herbicidal action against SETVI; conditions: dosage 320 g/ha
Method in brief: as §3

[15] = tested on: Verconica persica (VERPE); assay: Post-emergence herbicidal action against VERPE
Method in brief: as §3

Oryza sativa (ORYSA) [16] = conditions: crop plant compatibility
Method in brief: (§4)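 Visual rating (% effect vs. untreated plants; 100% = plant death) made about 3 weeks after treatment. Plants had been sprayed at one-leaf stage, 2–3 weeks post-sowing, with aqueous WP/EC preparations containing 0.5% additive, 600 l/ha water volume; a, b, c mark dose levels.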

[17] = tested on: Triticum aestivum (TRZAS); conditions: crop plant compatibility, effect vs untreated controls
Method in brief: as §4

Zea mays (ZEAMX) [18] = conditions: for Post-emergence action against ZEAMX in %: crop plant compatibility, 80 g/ha, effect vs untreated controls
Method in brief: as §4

[19] = tested on: Digitaria sanguinalis (DIGSA); assay: Pre-emergence herbicidal action against DIGSA
Method in brief: as §1

Lolium rigidum (LOLRI) [20] = assay: Pre-emergence herbicidal action against LOLRI
Method in brief: as §1

[21] = tested on: Pharbitis purpurea (PHBPU); assay: Pre-emergence herbicidal action against PHBPU; conditions: dosage 320 g/ha
Method in brief: as §1

Viola tricolor (VIOTR) [22] = assay: Pre-emergence herbicidal action against VIOTR
Method in brief: as §1

Zea mays (ZEAMX) [23] = conditions: pre-emergence, crop plant compatibility, in comparison to untreated controls
Method in brief: as §2

[24] = tested on: Alopecurus myosuroides (ALOMY); assay: Post-emergence herbicidal action against ALOMY; conditions: visual rating about 3 weeks after treatment vs untreated controls (100% = plants have died, 0% = like control plants)
Method in brief: as §3

[25] = tested on: Digitaria sanguinalis (DIGSA); assay: Post-emergence herbicidal action against DIGSA; conditions: 320 g/ha, visual rating about 3 weeks after treatment
Method in brief: as §3

[26] = tested on: Matricaria inodora (MATIN); assay: Post-emergence herbicidal action against MATIN; conditions: dosage 320 g/ha
Method in brief: as §3

Viola tricolor (VIOTR) [27] = assay: Post-emergence herbicidal action against VIOTR
Method in brief: as §3

[28] = tested on: Alopecurus myosuroides (ALOMY); assay: Pre-emergence herbicidal action against ALOMY; conditions: scored visually after about 3 weeks, 100% = plants have died
Method in brief: as §1

Avena fatua (AVEFA) [29] = assay: Post-emergence herbicidal action against AVEFA; conditions: 80 g/ha, visual rating about 3 weeks after treatment
Method in brief: as §3

[30] = 80 g/ha, visual rating about 3 weeks after treatment vs untreated controls (100% = plants have died, 0% = like control plants)
[31] = 320 g/ha, visual rating about 3 weeks after treatment
[32] = 80 g/ha, effect in comparison to untreated controls

SMILES | Pre-emergence action against AMARE in % ([1]; 320 g/ha) [%] | Pre-emergence action against AVEFA in % (Avena fatua (AVEFA) [2]; 320 g/ha) [%] | Pre-emergence action against ECHCG in % [3] [%] | Pre-emergence action against MATIN in % ([4]; dosage 320 g/ha) [%] | Pre-emergence action against POLCO in % ([5]; dosage 80 g/ha) [%] | Pre-emergence action against POLCO in % ([5]; dosage 320 g/ha) [%] | Pre-emergence action against SETVI in % (Setaria viridis (SETVI) [6]) [%] | Pre-emergence action against VERPE in % [7] [%] | Pre-emergence action against BRSNW in % (Brassica napus (BRSNW)) [%] | Post-emergence action against AMARE in % [9, 30] [%] | Post-emergence action against AMARE in % [9, 31] [%] | Post-emergence action against ECHCG in % ([10]; dosage 320 g/ha) [%] | Post-emergence action against LOLRI in % (Lolium rigidum (LOLRI) [11]; dosage 320 g/ha) [%] | Post-emergence action against PHBPU in % [12] [%] | Post-emergence action against POLCO in % [13] [%] | Post-emergence action against SETVI in % (Setaria viridis (SETVI) [14]) [%] | Post-emergence action against VERPE in % ([15]; 320 g/ha, VERPE) [%] | Post-emergence action against ORYSA in % (Oryza sativa (ORYSA) [16]; [32]) [%] | Post-emergence action against ZEAMX in % (Zea mays (ZEAMX) [18]) [%] | Pre-emergence action against ZEAMX in % (Zea mays (ZEAMX) [23]; 80 g/ha) [%] | also measured
Cc1cccc(-n2nc(OCC(=O)O)c(Cl)c2-c2ccc(F)nc2)n1 [Example I-351] | 80 | 80 | 90 | 80 | 80 | 80 | 100 | 80 | 20 | 80 | 80 | 80 | 80 | 80 | 80 | 80 | 80 | 0 | 10 | – | Pre-emergence action against ORYSA in % (Oryza sativa (ORYSA) [8]): 20%; Post-emergence action against TRZAS in % ([17]; 80 g/ha): 0%; Post-emergence action against TRZAS in % ([17]; 320 g/ha): 10%
COC(=O)COc1nn(-c2nc(F)ccc2F)c(-c2ccc(F)nc2)c1C1CC1 [Example I-300] | 90 | – | 90 | 80 | – | – | 90 | – | 20 | – | 80 | 90 | 90 | 80 | – | 80 | 80 | – | – | 10 | Pre-emergence action against DIGSA in % ([19]; 80 g/ha, visual scoring after about 3 weeks vs untreated controls): 90%; Pre-emergence action against DIGSA in % ([19]; dosage 320 g/ha): 100%; Pre-emergence action against LOLRI in % (Lolium rigidum (LOLRI) [20]; dosage 80 g/ha): 80%; Pre-emergence action against LOLRI in % (Lolium rigidum (LOLRI) [20]; dosage 320 g/ha): 90%; Pre-emergence action against PHBPU in % [21]: 80%; Pre-emergence action against VIOTR in % (Viola tricolor (VIOTR) [22]; 320 g/ha, Viola tricolor): 90%; Post-emergence action against ALOMY in % ([24]; 80 g/ha): 80%; Post-emergence action against ALOMY in % ([24]; 320 g/ha): 90%; Post-emergence action against DIGSA in % [25]: 80%; Post-emergence action against ECHCG in % ([10]; dosage 80 g/ha): 80%; Post-emergence action against LOLRI in % (Lolium rigidum (LOLRI) [11]; dosage 80 g/ha): 90%; Post-emergence action against MATIN in % [26]: 80%; Post-emergence action against VIOTR in % (Viola tricolor (VIOTR) [27]; 80 g/ha): 80%; Post-emergence action against VIOTR in % (Viola tricolor (VIOTR) [27]; 320 g/ha): 90%
COC(=O)CNC(=O)COc1nn(-c2ccccn2)c(-c2ccc(F)nc2)c1F [Example I-377] | 90 | – | – | 90 | – | – | 90 | 80 | 0 | 80 | 90 | 90 | – | 90 | 80 | 90 | 80 | 0 | 0 | 0 | Pre-emergence action against ALOMY ([28]; 320 g/ha): 80%; Pre-emergence action against AMARE in % ([1]; 80 g/ha): 80%; Pre-emergence action against MATIN in % ([4]; dosage 80 g/ha): 80%; Pre-emergence action against ZEAMX in % (Zea mays (ZEAMX) [23]; 320 g/ha): 0%; Post-emergence action against ECHCG in % ([10]; dosage 80 g/ha): 80%; Post-emergence action against TRZAS in % ([17]; 80 g/ha): 0%
C[C@@H](Oc1nn(-c2ncccc2Cl)c(-c2ccc(F)nc2)c1Br)C(=O)O [Example I-25] | 100 | 100 | 90 | 90 | 80 | 90 | 100 | 90 | 10 | – | – | – | – | – | – | – | – | 10 | 20 | 10 | Pre-emergence action against ALOMY ([28]; 80 g/ha): 80%; Pre-emergence action against ALOMY ([28]; 320 g/ha): 90%; Pre-emergence action against AMARE in % ([1]; 80 g/ha): 90%; Pre-emergence action against AVEFA in % (Avena fatua (AVEFA) [2]; 80 g/ha): 90%; Pre-emergence action against LOLRI in % (Lolium rigidum (LOLRI) [20]; dosage 320 g/ha): 100%; Pre-emergence action against VIOTR in % (Viola tricolor (VIOTR) [22]; 320 g/ha, Viola tricolor): 100%; Pre-emergence action against VIOTR in % (Viola tricolor (VIOTR) [22]; dosage 80 g/ha): 100%; Post-emergence action against ALOMY in % ([24]; 80 g/ha): 90%; Post-emergence action against AVEFA in % (Avena fatua (AVEFA) [29]): 90%; Post-emergence action against LOLRI in % (Lolium rigidum (LOLRI) [11]; dosage 80 g/ha): 80%; Post-emergence action against VERPE in % ([15]; dosage 80 g/ha): 80%; Post-emergence action against ORYSA in % (Oryza sativa (ORYSA) [16]; 20 g/ha, effect vs untreated controls): 0%; Post-emergence action against ZEAMX in % (crop plant compatibility) (Zea mays (ZEAMX) [18]; 20 g/ha, ZEAMX, effect in comparison to untreated controls): 10%
